Results published in US20210361706A1 (priority 2018, published 2021).
Read-outs that look alike come from different tables or passages of the source.

Assays:
EO771 tumor [1] = type: in vivo, C57BL/6JNarl female mice; conditions: for survival rate: twice CTX, FIG. 1B
Procedure: The syngeneic orthotopic EO771 breast cancer mouse model (see Johnstone et al., Disease models & mechanisms, 8(3):237-251 (2015)) was used to evaluate the in vivo treatment efficacy.
C57BL/6JNarl female mice were purchased from National Laboratory Animal Center, Taiwan and housed under specific pathogenic-free condition in the animal facility of Institute of Molecular Biology, Academia Sinica, Taiwan. Mice were used between 8-to-12-week-old.
EO771 cell line (CH3 BioSystems) were cultured in complete medium (RPMI 1640 (Gibco) supplemented with 20 mM pH7.2 HEPES (Sigma-Aldrich), 10% fetal bovine serum (FBS; HyClone) and 1% Penicillin and Streptomycin (PS; Gibco)). B16-F10 melanoma was provided by Dr. Roffler, Steve R. (Institute of Biomedical Sciences, Academia Sinica, Taiwan) and cultured in complete medium (DMEM (Gibco) supplemented with 10% FBS (HyClone) and 1% PS (Gibco)). Tumor cells were cultured at 37° C. incubator with 5% CO2.
Bone marrow (BM) cells were obtained from Tibias and femurs. Red blood cells were lysed by ACK lysis buffer (0.15 M NH4Cl, 10 mM NaHCO3, 1 mM disodium EDTA (pH 7.4)). The BM cells were cultured in 10% FBS RPMI medium containing rmIL-15 for 7 days, and IL-12 was added 16 hours before harvesting. The harvested BM cells were stained with antibodies specific for CD19, H57, NK1.1, CD11 c and B220, and sorted for CD11c^+B220^+ NK cells using FACSAriaII SORP (BD Biosciences; FACS Core, Institute of Molecular Biology, Academia Sinica, Taiwan).
CTX was administrated on day-21 post tumor inoculation. The twice CTX-treatment group received the second CTX injection 6 days after the first treatment. Phosphate-buffered saline (PBS) was used as a negative control.
First, the effects of CTX monotherapy, NK monotherapy, or CTX and NK cell combined therapy on EO771 tumor-bearing mice were examined, following the assays described in Example 1 above. The treatment started on day-21 post tumor inoculation. […] FIG. 2. […] FIG. 2.

EO771 tumor [2] = type: in vivo, C57BL/6JNarl female mice
Source text: Next, the effect of CTX monotherapy and CTX/NK cell combined therapy were examined in an EO771 tumor resection mouse model, which mimics patients whose tumor was surgically removed.
Tumor and draining lymph node were resected on day-21 post tumor inoculation, and CTX alone or in combination with NK cells were started two days after the resection. […] FIG. 4. […] FIG. 4. […] FIG. 4. […]

EO771 cells [3] = type: in vivo, C57BL/6JNarl female mice; conditions: tumor-resected mice
Source text: Following the assays described in Example 1 above, it was examined in this Example whether CTX monotherapy and CTX/NK cell combined therapy would induce protective immune memory under tumor-resected condition. Mice survived after the treatment of primary EO771 tumor were re-challenged with EO771 cells. […] FIG. 5. […] FIG. 5.

EO771 cells [4] = assay: EO771 re-challenge of tumor-bearing mice that survived the primary tumor after treatment
Procedure: The orthotopic syngeneic TMBC model was done by injection of EO771 cells into the 4th mammary fat pad of C57BL/6JNarl female mice. For the tumor-bearing model, each mouse was inoculated with 0.5×10^6 cells and received the first intra-peritoneal injection of CTX after 21 days. The second CTX injection was given 6 days later. Sorted CD11c^+B220^+ NK cells were transferred intravenously around 24 hours after the second CTX treatment, and followed with another NK cell transfer 3-4 days later. For the tumor-resect model, each mouse was inoculated with 0.3×10^6 EO771 cells, and the tumor and draining lymph node were resected 21 days later. CTX/NK treatment started at 48 hours after resection as described in the tumor-bearing model. […] The mice were monitored for survival, body weight, and tumor volume.
Kaplan-Meier survival analyses were performed using GraphPad Prism 7, and the Log-rank test was used to determine significance. Cox proportional hazard model was used to analyze hazard ratio and interaction [24]. P-value≤0.05 was considered statistically significant (*p≤0.05, **p≤0.01, ***p≤0.001, ****p≤0.0001).
To determine whether CTX/NK cell combined therapy would prevent or reduce the risk of tumor recurrence, mice who survived the primary tumor after the treatment were re-challenged with the same tumor cells to mimic cancer recurrence.
The cure rate was estimated by multiplying the primary and re-challenge survival rates.

[5] = tumor-bearing model, reference: no treatment
[6] = tumor-resection model, reference: no treatment (resection only)
[7] = primary survival rate × survival rate after EO771 re-challenge

O=P1(N(CCCl)CCCl)NCCCO1 (stereo not shown) [CTX, cyclophosphamide]
mice survived for at least 120 days (EO771 tumor [1]; CTX once, 150 mg/kg per injection, day-21 post tumor inoculation, FIG. 1A): 1 out of 8 | mice survived for at least 120 days (EO771 tumor [1]; CTX twice, 6 days apart, 150 mg/kg per injection, from day 21, FIG. 1A): 5 out of 8 | mice survived for at least 120 days (EO771 tumor [1]; treatment started on day-21 post tumor inoculation, FIG. 2): 62% | Primary survival rate % (live/total) (EO771 tumor [1]; tumor-bearing mice, survival post treatment in mice inoculated with tumor the first time): 62 (46/74) % | HR (95% CI), Frailty adjustment (EO771 tumor [1]; [5]): 0.02 (0.009, 0.044) | HR (95% CI), cluster adjustment (EO771 tumor [1]; [5]): 0.024 (0.009, 0.066) | HR (95% CI), without batch adjustment (EO771 tumor [1]; [5]): 0.024 (0.012, 0.051) | survival rate (EO771 tumor [1]; 6 days apart, 125 mg/kg per injection): 11% | survival rate (EO771 tumor [1]; 6 days apart, 150 mg/kg per injection): 62% | survival rate (EO771 tumor [2]; tumor resected mice, treatment started two days after resection, FIG. 4): 86% | Primary survival rate % (live/total) (EO771 tumor [2]; tumor-resected mice, survival post treatment in mice inoculated with tumor the first time): 86 (49/57) % | HR (95% CI), Frailty adjustment (EO771 tumor [2]; [6]): 0.083 (0.036, 0.192) | HR (95% CI), cluster adjustment (EO771 tumor [2]; [6]): 0.086 (0.037, 0.201) | HR (95% CI), without batch adjustment (EO771 tumor [2]; [6]): 0.086 (0.040, 0.186) | Tumor-free rate after EO771 re-challenge % (live/total) (EO771 cells [3]): 30 (7/23) % | estimated cure rate (EO771 cells [3]; EO771 primary and re-challenge survival rates): 26% | survival after EO771 re-challenge (EO771 cells [3]; FIG. 5): 30% | Estimated cure rate with immune protection (%) (EO771 cells [3]; [7]): 26% | Survival rate after EO771 re-challenge % (live/total) (EO771 cells [4]): 90 (26/29) % | survived at least 120 days after the EO771 re-challenge (EO771 cells [4]; FIG. 3): 90% | Estimated cure rate with immune protection (%) (EO771 cells [4]; [7]): 56% | estimated cure rate (EO771 cells [4]; primary × re-challenge survival rates): 56%
